Consider 90 molecules from a melting point compilation (Tetko et al.; mined from patent text by program, amines drawn as free bases though some values may be those of a salt).

Regarding `CNCCn1nc2c3c(c(Cl)ccc31)C(=O)c1c(OCc3ccccc3)ccc(OCc3ccccc3)c1-2`, the melting point – broadly, the temperature of the solid-liquid transition – lay in the range of 171 to 176 °C.

In turn, `CC1=C(C(=O)OC(C)C)C(c2cccc(Cl)c2)N(C(=O)Oc2ccc([N+](=O)[O-])cc2)CN1` (stereo not given) had a melting point of 165 to 167 °C.

The molecule `CCC(OC)c1cccc2nc3n(c12)CCCN3c1ccc(Cl)cc1Cl` (stereo not given) gave a melting point of 151 to 153 °C.

The molecule `CN(C(C)(C)C)S(=O)(=O)CC(N)=O` returned a melting point of 105 to 109 °C.

`C=CCOC(=O)C(C(=O)OCC=C)=C1SC(O)C(O)S1` (stereo not given) gave a melting point of 81.2 °C.

`CCOC(=O)c1c(-c2ccccc2C)c2cc(Cl)ccc2[nH]c1=O` displayed a melting point of 215 to 216 °C.

Turning to `CCN(c1cc(C)c(C)c2cc(-c3ncc(CO)s3)[nH]c12)S(=O)(=O)c1cccs1`, the melting point was in the range of 189 to 190 °C.

Take `[N-]=[N+]=C1C(=O)CCc2ccccc21`: the melting point was 42.5 to 44.2 °C.

`CC(C)c1cc(Cl)cc(C(C)C)c1NC(=O)NS(=O)(=O)c1cccc(C2(C)OCCO2)c1` came in with a melting point of 155 to 157 °C.

As for `O=C(CCCCCCC(=O)N1CCN(c2cccc(F)c2)CC1)NO`, the melting point was 149 to 150 °C.

As for `COc1ccc([C@@H]2Sc3cc(Cl)ccc3N(CCN(C)C(=O)OCc3ccccc3)C(=O)[C@@H]2O)cc1`, the melting point was determined as 108 °C.

As for `O=C(Nc1cccnc1)N1CCN(c2nccc(-c3cc(F)cc(F)c3)n2)CC1`, the melting point fell in the range of 231 to 232 °C.

For the molecule `CCOC(=O)C(=CC=C(O)C(=O)O)Sc1ccccc1`, the melting point came to 172 °C.

`Cc1cccc(C)c1CNc1cc(Br)cc2c1nc(C)n2O` displayed a melting point of 277 °C.

For `CS(=O)(=O)Nc1ccc(N2CCC(O)CC2)cc1`, the melting point lay within 126 to 129 °C.

In turn, `Cc1cc(Nc2ccc(Cl)c(Cl)c2)nc(-n2nc(C)cc2C)n1` returned a melting point of 135 to 138 °C.

As to `CCCCNc1nc(=O)c2c(C)nn3c2n1CC(C)=C3c1ccccc1`, the melting point was more than 300 °C.

As for `CS(=O)(=O)c1ccc(-c2oc(C(=O)O)cc(=O)c2Oc2ccc(F)cc2F)cc1`, the melting point stood at 245 °C.

The molecule `CC(=O)Nc1nc(CCc2ccc(CN3CCN(C(=O)OC(C)(C)C)CC3)cc2)cs1` displayed a melting point of 140 to 141 °C.

In the case of `CC(=O)NC[C@H]1CN(c2ccc3c(c2)N(C(=O)OCc2ccccc2)[C@H](C)C3)C(=O)O1`, the melting point lay within 201 to 203 °C.

For `CN(C)CCc1[nH]c2ccccc2c1CSc1ccccc1`, the melting point is 97 to 99 °C.

On to `CC(CCCC(O)(C(F)(F)F)C(F)(F)F)C1CCC2C3C=CC4=CC(=O)C=CC4(C)C3CCC12C` (stereo not given), for which the melting point is 166 to 168 °C.

In turn, `Cc1c(C(=O)Nc2ncc(CO)s2)nnn1Cc1ccc(Cl)c(Cl)c1` registered a melting point of 170 °C.

Turning to `Cc1nc2c3c(ccc2n1C)[C@@H](OCC(F)F)[C@H](O)[C@@H](c1ccccc1)O3`, the melting point is 249 °C.

As to `CC(=O)SCCC(=O)N1c2ccc(Cl)cc2CCC1C(=O)O` (stereo not given), the melting point lay in the range of 134 to 136 °C.

The molecule `O=C(O)c1cn2c(nc1=O)CCCCC2` returned a melting point of 198 °C.

As to `COC(=O)[C@H]1OC(OC(=O)c2ccc(/C=C(\C)c3ccc4c(c3)C(C)(C)CCC4(C)C)cc2)[C@H](OC(C)=O)[C@@H](OC(C)=O)[C@@H]1OC(C)=O` (stereo not given in full), the melting point turned out to be 161 °C.

Molecule `C#CCOc1ccc([N+](=O)[O-])cc1` registered a melting point of 108 to 110 °C.

`CC(C)(C)OC(=O)Nc1cc(CC#N)c(C#Cc2ccccc2)cc1N` yielded a melting point of 143 °C.

Regarding `CCCCCCCCCCCCCCCCCCNC(=O)C(=O)Nc1ccc(Sc2ccc(O)cc2)cc1`, the melting point was 163 °C.

The molecule `CC1(O)C(O)C(CO)OC1n1ccc2c(N)ncnc21` (stereo not given) showed a melting point of 222 °C.

`Clc1nc2ccccc2c2[nH]c3ccccc3c12`: the melting point lay in the range of 249 to 250 °C.

With `CSC(N)=C(Cc1ccccc1)[N+](=O)[O-]`, the melting point turned out to be 112 °C.

`Cc1ccc(-n2ncc(-c3ccc(S(C)(=O)=O)cc3)cc2=O)cc1` showed a melting point of 190 to 192 °C.

In turn, `COC(=O)c1cc(-c2nn(C)c(SC)c2C)c(F)cc1Cl` displayed a melting point of 82 to 83 °C.

In the case of `NCC(O)COc1cccc(Cl)c1` (stereo not given), the melting point fell in the range of 55 to 58 °C.

Turning to `CCCCOC1CCC(=O)N1` (stereo not given), the melting point was 36 to 38 °C.

In the case of `CCOC(=O)C1=C(COCc2nnn(CCNc3cc(Cl)ncn3)n2)NC(C)=C(C(=O)OC)C1c1cccc(Cl)c1Cl` (stereo not given), the melting point fell in the range of 160 to 162 °C.

Molecule `O=C(O)c1ccc(OCCNC(=O)C2Cc3ccccc3N2S(=O)(=O)c2ccc(-c3cc(C(F)(F)F)ccc3Cl)cc2)cc1` (stereo not given) showed a melting point of 117 to 121 °C.

The molecule `COc1ccc(CC(C(N)=O)S(C)=O)cc1C(=O)NCc1ccc(C(F)(F)F)cc1` (stereo not given) registered a melting point of 170 to 171 °C.

As to `COc1ccc(-c2cccc3c2C(=O)OC(C)(C)O3)cn1`, the melting point came to 160 °C.

Take `O=P1(c2cccc(C(F)(F)F)c2)OCc2ccccc21` (stereo not given): the melting point was in the range of 102 to 106 °C.

Consider `COc1ccccc1-c1nsc2ccc([N+](=O)[O-])cc12`, for which the melting point lay in the range of 193 to 198 °C.

The molecule `CCCOc1ccccc1-c1nc(O)cc(C(=O)NC)n1` registered a melting point of 165 to 166 °C.

`C=CCOC(=O)c1c(C)nc2c(c1N)c1ccccc1n2C`: the melting point amounted to 94 °C.

In turn, `COc1ccc(S(=O)(=O)CCCc2ccc(CC(=O)O)cc2)cc1` displayed a melting point of 149 to 150 °C.

Consider `CCS(=O)(=O)N(C)C1c2cc(F)c(Cl)cc2OC(C)(C)C1OC(C)=O` (stereo not given), for which the melting point was 143 to 144 °C.

Molecule `Cc1ccc(Sc2ccnc3sccc23)cc1` displayed a melting point of 90 to 92 °C.

Take `COc1cccc(-c2c(NC(=O)Nc3c(C(C)C)cccc3C(C)C)c(=O)n(C)c3ncccc23)c1`: the melting point fell in the range of 169 to 170 °C.

Molecule `CC(Cc1cc(C(=O)c2ccccc2)ccc1OC(=O)C(C)(C)C)C(=O)O` (stereo not given) yielded a melting point of 119 to 120 °C.

Molecule `C=CC1CC1(C(=O)OC)C(=O)OCc1ccco1` (stereo not given) gave a melting point of 67.5 to 68.5 °C.

With `CNc1nc(Nc2ccc(OCCNC(=O)OC(C)(C)C)cc2)ncc1[N+](=O)[O-]`, the melting point was 205 to 207 °C.

Regarding `COc1ccc2[nH]cc(/C=C/c3cc(/C=C/c4ccc(OCc5ccccn5)cc4OC)[nH]n3)c2c1`, the melting point was 189 to 195 °C.

Consider `CC(C)(SCC(N)=O)c1ccc2c(c1)OCO2`, for which the melting point is 70 to 71.5 °C.

`CCCNC(=O)Nc1c(C(=O)OCC)cnn1-c1ccccc1` yielded a melting point of 117 to 118 °C.

The molecule `Cc1ccc(NCC2CCN(C(C)C)CC2)c(C(=O)Nc2ccc(F)cn2)c1` came in with a melting point of 58 to 60 °C.

In the case of `COC(=O)c1c[nH]c(CCC2CNc3nc(NC(=O)C(C)(C)C)nc(O)c3C2)c1` (stereo not given), the melting point was more than 260 °C.

With `CCCc1nn(-c2ccc(C(F)(F)F)cn2)cc1CCCOc1c(CC(=O)O)cccc1OCC`, the melting point was in the range of 133 to 134 °C.

In turn, `COC(=O)[C@H](Cc1ccc(-c2ccccc2)cc1)NC(=O)OC(C)(C)C` yielded a melting point of 83 to 85 °C.

Molecule `COC(=O)c1cc(CS(=O)(=O)c2ccccc2)cnc1C1=NC(C)(C(C)C)C(=O)N1C(=O)c1ccccc1` (stereo not given) gave a melting point of 162 to 166 °C.

In the case of `COC(c1ccc(NC(=O)c2c(C)nn(C)c2C)cc1CC(C)C)(C(F)(F)F)C(F)(F)F`, the melting point lay in the range of 189 to 190 °C.

Take `CCOc1ccc2c(c1)CCN(C(=O)OCc1ccccc1)C21CCC(C(=O)O)(C(=O)O)CC1`: the melting point lay in the range of 184 to 185 °C.

With `COc1cc2nc(N3CCc4c(cccc4S(=O)(=O)N4CCN(C)CC4)C3)[nH]c(=O)c2cc1OC`, the melting point was 230 to 237 °C.

The molecule `COC(=O)CCc1cc2cc(F)c(Cl)cc2[nH]1` registered a melting point of 138 to 139 °C.

For `CONC(c1ccccc1)c1cc(C(C)(C)C)c(O)c(C(C)(C)C)c1` (stereo not given), the melting point lay within 135 to 137 °C.

`CC(Nc1nc(-c2ccccc2)cs1)c1ccc(CO)cc1` (stereo not given) yielded a melting point of 88 to 90 °C.

Take `CCCCCCCCCCCCCCC(C)(C(=O)O)C(=O)O`: the melting point was 83 to 85 °C.

`O=C(O)COc1ccc(-c2cc(O)c(SCCc3ccccc3)c(=O)o2)cc1` returned a melting point of 182 to 183 °C.

Molecule `CC(=Cc1ccc2ccccc2c1)c1ccc(C)cc1` yielded a melting point of 109 °C.

In the case of `O=c1oc(=O)n(CCc2ccccc2)c2ncccc12`, the melting point is 147 to 149 °C.

The molecule `CNc1ccccc1C(=O)CCl` came in with a melting point of 65 to 68 °C.

Regarding `N#Cc1cc(-c2cccc(Cl)c2)ccc1N`, the melting point lay within 118 to 119 °C.

On to `COC(=O)C1=C(O)CCc2c(OC)cccc21`, for which the melting point was 55 to 58 °C.

As for `CCCc1ccc2c(C(=O)O)ccc(OC)c2n1`, the melting point lay within 214 to 217 °C.

`O=C(CCCCCS(=O)c1ccc(-c2ccc(Cl)cc2)cc1)NO` (stereo not given) returned a melting point of 108 to 110 °C.

The molecule `N#CSCC(Cl)=C(Cl)CBr` showed a melting point of 64.5 to 66.5 °C.

In turn, `CNC(=O)c1cn(C)nc1[N+](=O)[O-]` displayed a melting point of 163 to 165 °C.

The molecule `Cc1c(N)cccc1OC1CCN(C(=O)OC(C)(C)C)C1` (stereo not given) came in with a melting point of 137 °C.

Turning to `CCCNCCc1ccc(NS(=O)(=O)c2ccc(OC(F)(F)F)cc2)cc1`, the melting point is 151 to 154 °C.

`COc1ccc(-c2c[nH]c(-c3cccnc3)n2)cc1` yielded a melting point of 184 to 186 °C.

As to `COC(=O)c1cn(C(c2ccccc2)(c2ccccc2)c2ccccc2)cn1`, the melting point was in the range of 147 to 152 °C.

Consider `CCCCn1c(=O)c2c(NCC)n[nH]c2n(Cc2ccc(OC)cc2)c1=O`, for which the melting point was 234 to 236 °C.

For `COP(=O)(Cc1cc(C)c(CP(=O)(OC)OC)cc1C)OC`, the melting point lay within 121 to 123 °C.

Consider `CC1(C)CC(=O)OC(C(Cl)(Cl)Cl)C1Cl` (stereo not given), for which the melting point was 83 to 84 °C.

The molecule `CC(C)(C)OC(=O)NCCCCCNC1(c2ccccc2Cl)C(=O)Nc2ccc(Cl)cc21` (stereo not given) returned a melting point of 185 °C.

The molecule `CCCCn1cc(C(=O)OCC)c(NC(=S)Nc2ccccc2)n1` showed a melting point of 93 to 95 °C.

In the case of `CCCc1cc2nc(=O)[nH]n2c(C)n1`, the melting point amounted to 173 °C.

As to `CN(C)c1ccc([N+](=O)[O-])c(CO)c1`, the melting point lay within 138 to 139 °C.

`CN(C)CCNc1cc(Sc2ccc(Cl)cc2)nc(-c2ccc(Cl)c(Cl)c2)n1` returned a melting point of 99 to 103 °C.

`Clc1cc(Cl)c2c(c1)COCO2` displayed a melting point of 111 to 112 °C.
